Assay results from ChEMBL document CHEMBL5528040, “Design and Synthesis of Novel 3-Nitro-1H-1,2,4-triazole-1,2,3-triazole-1,4-disubstituted Analogs as Promising Antitrypanosomatid Agents: Evaluation of In Vitro Activity against Chagas Disease and Leishmaniasis” (J Med Chem, 2024).

Key:
[1] = Mutagenicity in Salmonella typhimurium TA98 assessed as number of revertant colonies at 10 ug per plate incubated for 90 mins by AMES test (reference value: 22.67 +/- 0.58); format: toxicity, Salmonella enterica subsp. enterica serovar Typhimurium; settings: in vivo, 1.5 h, dose 10 µg
[2] = Cytotoxicity against monkey LLC-MK2 cells incubated for 72 hrs by MTT assay; format: toxicity, cell-based, Macaca mulatta; settings: rhesus monkey
[3] = test system: Trypanosoma cruzi; test: (§1) Antitrypanosomal activity against Trypanosoma cruzi Tulahuen amastigotes transfected with Escherichia coli beta-galactosidase LacZ gene infected in monkey LLC-MK2 cells assessed as inhibition of amastigotes growth incubated for 72 hrs by absorbance based microplate reader analysis; format: functional, organism-based; settings: LLC-MK2, 72 h
[4] = Selectivity index, ratio of CC50 for cytotoxicity against monkey LLC-MK2 cells to IC50 for antitrypanosomal activity against Trypanosoma cruzi Tulahuen amastigotes transfected with Escherichia coli beta-galactosidase LacZ gene infected in monkey LLC-MK2 cells; format: toxicity, cell-based; settings: read-out: Ratio CC50/IC50
[5] = test system: Leishmania amazonensis; test: Antileishmanial activity against Leishmania amazonensis IFLA/BR/1967/PH8 amastigotes infected in murine peritoneal macrophages incubated for 24 hrs by Giemsa staining based analysis; format: functional, organism-based; settings: IFLA/BR/1967/PH8, Peritoneal macrophage
[6] = Substrate activity at Trypanosoma cruzi type I nitro reductase assessed as reduction in NADH incubated for 120 sec by spectrophotometric analysis
[7] = test system: Trypanosoma cruzi; test: as §1, with “Potency index, ratio of Benznidazole IC50 to test compound IC50 for antitrypanosomal” for “Antitrypanosomal”; format: functional
[8] = Mutagenicity in Salmonella typhimurium TA100 assessed as number of revertant colonies at 2.5 ug per plate incubated for 90 mins by AMES test (reference value: 88.00 +/- 2.65); format: toxicity, Salmonella enterica subsp. enterica serovar Typhimurium; settings: in vivo, 1.5 h, dose 2.5 µg

SMILES | IC50 [3] | IC50 [5] | pIC50 [6] | Activity [1] | CC50 at 72 h [2] | selectivity ratio [4] | Ratio IC50 [7] | Activity [8]
Nc1ccc([N+](=O)[O-])cc1N | – | – | – | 253 | – | – | – | –
O=C(O)c1ccc(-n2cc(Cn3cnc([N+](=O)[O-])n3)nn2)cc1 | > 50 µM | 4.7 µM | – | – | > 50 µM | > 1 | – | –
O=[N+]([O-])c1ncn(Cc2cn(-c3ccc(F)c(F)c3)nn2)n1 | 22.6 µM | 4.7 µM | – | – | > 50 µM | > 4.4 | – | –
O=[N+]([O-])c1ncn(Cc2cn(-c3cccc(C(F)(F)F)c3)nn2)n1 | 5.8 µM | 4.7 µM | – | – | > 50 µM | > 17.2 | – | –
CCOC(=O)c1ccc(-n2cc(Cn3cnc([N+](=O)[O-])n3)nn2)cc1 | 38.4 µM | 4.7 µM | – | – | > 50 µM | > 1.3 | – | –
CS(=O)(=O)c1ccc(-n2cc(Cn3cnc([N+](=O)[O-])n3)nn2)cc1 | > 50 µM | 4.7 µM | – | – | > 50 µM | > 1 | – | –
COc1cccc(-n2cc(Cn3cnc([N+](=O)[O-])n3)nn2)c1 | 7.93 µM | 4.7 µM | – | – | > 50 µM | > 6.3 | – | –
O=[N+]([O-])c1ncn(Cc2cn(-c3ccc(C(F)(F)F)cc3)nn2)n1 | 3.6 µM | 4.7 µM | – | – | > 50 µM | > 27.9 | – | –
N#Cc1ccc(-n2cc(Cn3cnc([N+](=O)[O-])n3)nn2)cc1 | 1.45 µM | 4.7 µM | – | – | > 50 µM | > 34.5 | – | –
NS(=O)(=O)c1ccc(-n2cc(Cn3cnc([N+](=O)[O-])n3)nn2)cc1 | > 50 µM | 4.7 µM | – | – | > 50 µM | > 1 | – | –
COc1cc(-n2cc(Cn3cnc([N+](=O)[O-])n3)nn2)cc(OC)c1OC | 2.89 µM | 4.7 µM | – | – | > 50 µM | > 17.3 | – | –
N#Cc1cccc(-n2cc(Cn3cnc([N+](=O)[O-])n3)nn2)c1 | 7.35 µM | 4.7 µM | – | – | > 50 µM | > 6.8 | – | –
O=[N+]([O-])c1ncn(Cc2cn(-c3cccc(Cl)c3)nn2)n1 | 5.72 µM | 4.7 µM | – | – | > 50 µM | > 8.74 | – | –
O=[N+]([O-])c1ncn(Cc2cn(-c3ccc(Cl)c(C(F)(F)F)c3)nn2)n1 | 9.89 µM | 4.7 µM | – | – | > 50 µM | > 5.05 | – | –
O=C(O)c1cccc(-n2cc(Cn3cnc([N+](=O)[O-])n3)nn2)c1 | > 50 µM | 4.7 µM | – | – | > 50 µM | > 1 | – | –
O=[N+]([O-])c1cccc(-n2cc(Cn3cnc([N+](=O)[O-])n3)nn2)c1 | 24.4 µM | 4.7 µM | – | – | > 50 µM | > 4.1 | – | –
O=[N+]([O-])c1ncn(Cc2cn(-c3ccc4c(c3)OCO4)nn2)n1 | 13.8 µM | 89.5 µM | – | – | > 50 µM | > 3.62 | – | –
Nc1ccc2cc3ccccc3cc2c1 [2-AMINOANTHRACENE] | – | – | – | – | – | – | – | 977.33
O=C(Cn1ccnc1[N+](=O)[O-])NCc1ccccc1 [BENZNIDAZOLE] | – | – | – | – | > 50 µM | > 8.13 | – | –

The next lines start with results.

IC50 [3] | IC50 [5] | pIC50 [6] | SMILES | Activity [1] | CC50 at 72 h [2] | selectivity ratio [4] | Ratio IC50 [7] | Activity [8]
0.22 µM | 4.7 µM | 6.65 | COc1cc(OC)cc(-n2cc(Cn3cnc([N+](=O)[O-])n3)nn2)c1 | – | > 50 µM | > 227 | – | –
1.12 µM | 4.7 µM | 5.95 | COc1ccc(-n2cc(Cn3cnc([N+](=O)[O-])n3)nn2)cc1OC | – | > 50 µM | > 44.6 | – | –
0.21 µM | 4.7 µM | 6.67 | CSc1ccc(-n2cc(Cn3cnc([N+](=O)[O-])n3)nn2)cc1 | – | > 50 µM | > 238 | – | –
0.61 µM | 4.7 µM | 6.21 | O=[N+]([O-])c1ccc(-n2cc(Cn3cnc([N+](=O)[O-])n3)nn2)cc1 | – | > 50 µM | > 82 | – | –
0.11 µM | 4.7 µM | 6.95 | O=[N+]([O-])c1ncn(Cc2cn(-c3ccc(Cl)c(Cl)c3)nn2)n1 | – | > 50 µM | > 454 | <=55 | –
1.11 µM | 4.7 µM | 5.95 | O=[N+]([O-])c1ncn(Cc2cn(-c3ccc(F)cc3)nn2)n1 | – | > 50 µM | > 45 | – | –
0.65 µM | – | – | COc1ccc(-n2cc(Cn3ccnc3[N+](=O)[O-])nn2)cc1OC | – | – | – | – | –
1.35 µM | 4.7 µM | 5.86 | O=[N+]([O-])c1ncn(Cc2cn(-c3ccccc3)nn2)n1 | – | > 50 µM | > 37 | – | –
0.33 µM | 4.7 µM | 6.48 | Cc1ccc(-n2cc(Cn3cnc([N+](=O)[O-])n3)nn2)cc1 | – | > 50 µM | > 152 | – | –
0.07 µM | 4.7 µM | 7.15 | O=[N+]([O-])c1ncn(Cc2cn(-c3ccc(Oc4ccccc4)cc3)nn2)n1 | – | > 50 µM | > 714 | – | –
0.31 µM | 4.7 µM | 6.5 | O=[N+]([O-])c1ncn(Cc2cn(-c3ccc(Cl)cc3)nn2)n1 | – | > 50 µM | > 161 | – | –
0.84 µM | 4.7 µM | 6.07 | COc1ccc(-n2cc(Cn3cnc([N+](=O)[O-])n3)nn2)cc1 | – | > 50 µM | > 59.5 | – | –
